Consider 3 molecules from PubChem BioAssay AID1259407 (Chemical Carcinogenesis Research Information System (CCRIS), 2018).

Activity calls are given as the source filed them. How the calls were made is not given here.

The test system of the series is CCRIS mutagenicity, Ames/micronucleus/aberration tests. The experiment in a line: CCRIS mutagenicity studies.
Setting [1] is: Test System: AMES SALMONELLA TYPHIMURIUM, Strain/Indicator: TA98, Metabolic Activation: NONE, Method: STANDARD PLATE.
The mark [2] stands for this setting: Test System: AMES SALMONELLA TYPHIMURIUM, Strain/Indicator: TA100, Metabolic Activation: NONE, Method: STANDARD PLATE.
[3] abbreviates: Test System: AMES SALMONELLA TYPHIMURIUM, Strain/Indicator: TA100, Metabolic Activation: RAT, LIVER, S-9, AROCLOR 1254, Method: STANDARD PLATE.
Where [4] appears, read: Test System: AMES SALMONELLA TYPHIMURIUM, Strain/Indicator: TA1535, Metabolic Activation: RAT, LIVER, S-9, AROCLOR 1254, Method: STANDARD PLATE.

As to `Nc1ccc2ccccc2c1`, the mutagenic call was “inactive; negative” (Test System: AMES SALMONELLA TYPHIMURIUM, Strain/Indicator: TA98(1,8-DNP6), Metabolic Activation: PLANT CELLS, Method: PREINCUBATION); “active; positive” (Test System: AMES SALMONELLA TYPHIMURIUM, Strain/Indicator: TA98, Metabolic Activation: HAMSTER, LIVER, S-9, AROCLOR 1254 (30%), Method: PREINCUBATION); “active; positive” (Test System: AMES SALMONELLA TYPHIMURIUM, Strain/Indicator: TA98, Metabolic Activation: HUMAN, RED BLOOD CELL, CYTOSOL, Method: PREINCUBATION); “active; positive” (Test System: AMES SALMONELLA TYPHIMURIUM, Strain/Indicator: TA98, Metabolic Activation: MOUSE, LIVER, S-9, PHENOBARBITAL AND BETA-NAPHTHOFLAVONE, Method: STANDARD PLATE); “active; positive” (Test System: AMES SALMONELLA TYPHIMURIUM, Strain/Indicator: TA98, Metabolic Activation: MOUSE, LIVER, S-9, PHENOBARBITAL, BETA-NAPHTHOFLAVONE, ISOSAFROLE, ETHANOL, PREGNENOLONE AND 16ALPHA-CARBONITRILE, Method: STANDARD PLATE); “inactive; negative” (Test System: AMES SALMONELLA TYPHIMURIUM, Strain/Indicator: TA98, Metabolic Activation: NONE, Method: PREINCUBATION). For the same molecule, the mutagenic call is, setting by setting: under setting [1], “inactive; negative”; (Test System: AMES SALMONELLA TYPHIMURIUM, Strain/Indicator: TA98, Metabolic Activation: PLANT CELLS, Method: PREINCUBATION) “inactive; negative”; (Test System: AMES SALMONELLA TYPHIMURIUM, Strain/Indicator: TA98, Metabolic Activation: RAT, LIVER, S-9, AROCLOR 1254 (2%), Method: STANDARD PLATE) “active; positive”; (Test System: AMES SALMONELLA TYPHIMURIUM, Strain/Indicator: TA98, Metabolic Activation: RAT, LIVER, S-9, AROCLOR 1254 (30%), Method: PREINCUBATION) “active; positive”; (Test System: AMES SALMONELLA TYPHIMURIUM, Strain/Indicator: TA98, Metabolic Activation: RAT, LIVER, S-9, AROCLOR 1254, Method: STANDARD PLATE) “inactive; negative”; (Test System: AMES SALMONELLA TYPHIMURIUM, Strain/Indicator: TA98, Metabolic Activation: RAT, LIVER, S-9, KANECHLOR 500 OR PHENOBARBITAL AND BETA-NAPHTHOFLAVONE, Method: PREINCUBATION) “active; positive”. For the same molecule, the mutagenic call (Test System: AMES SALMONELLA TYPHIMURIUM, Strain/Indicator: TA100, Metabolic Activation: HAMSTER, LIVER, S-9, AROCLOR 1254 (30%), Method: PREINCUBATION) was “active; positive”; the mutagenic call (Test System: AMES SALMONELLA TYPHIMURIUM, Strain/Indicator: TA100, Metabolic Activation: NONE, Method: PREINCUBATION) is “inactive; negative”; the mutagenic call under setting [2] is “inactive; negative”; the mutagenic call (Test System: AMES SALMONELLA TYPHIMURIUM, Strain/Indicator: TA100, Metabolic Activation: RAT, LIVER, S-9, AROCLOR 1254 (10%) (WITHOUT ADDED COFACTORS), Method: STANDARD PLATE) was “inactive; negative”; the mutagenic call (Test System: AMES SALMONELLA TYPHIMURIUM, Strain/Indicator: TA100, Metabolic Activation: RAT, LIVER, S-9, AROCLOR 1254 (30%), Method: PREINCUBATION) is “active; positive”; the mutagenic call under setting [3] was “active; positive”. In addition, the mutagenic call reads like this: (Test System: AMES SALMONELLA TYPHIMURIUM, Strain/Indicator: TA100, Metabolic Activation: RAT, LIVER, S-9, AROCLOR (10%), Method: STANDARD PLATE) “active; positive”; (Test System: AMES SALMONELLA TYPHIMURIUM, Strain/Indicator: TA100, Metabolic Activation: RAT, LIVER, S-9, KANECHLOR 500 OR PHENOBARBITAL AND BETA-NAPHTHOFLAVONE, Method: PREINCUBATION) “active; positive”; (Test System: AMES SALMONELLA TYPHIMURIUM, Strain/Indicator: TA100, Metabolic Activation: RAT, LIVER, S-9, KC500 OR PHENOBARBITAL, Method: LIQUID SUSPENSION) “active; positive”; (Test System: AMES SALMONELLA TYPHIMURIUM, Strain/Indicator: TA100, Metabolic Activation: RAT, LIVER, S-9, TCDD, Method: STANDARD PLATE) “active; positive”; (Test System: AMES SALMONELLA TYPHIMURIUM, Strain/Indicator: TA100, Metabolic Activation: S-9, Method: FLUCTUATION TEST) “active; positive”; under setting [4], “active; positive”. Besides, the mutagenic call is “active; positive” (Test System: AMES SALMONELLA TYPHIMURIUM, Strain/Indicator: TA1535, Metabolic Activation: RAT, LIVER, S-9, AROCLOR (10%), Method: STANDARD PLATE); “active; positive” (Test System: AMES SALMONELLA TYPHIMURIUM, Strain/Indicator: TA1535, Metabolic Activation: RAT, LIVER, S-9, PHENOBARBITAL, Method: STANDARD PLATE); “inactive; negative” (Test System: AMES SALMONELLA TYPHIMURIUM, Strain/Indicator: YG1024, Metabolic Activation: PLANT CELLS, Method: PREINCUBATION); “inactive; negative” (Test System: CHINESE HAMSTER V-79, Strain/Indicator: V-79/6-THIOGUANINE, Metabolic Activation: NONE, Method: SUSPENSION/PLATE); “active; positive” (Test System: CHINESE HAMSTER V-79, Strain/Indicator: V-79/6-THIOGUANINE, Metabolic Activation: RAT, LIVER, S-9, PHENOBARBITAL AND BETA-NAPHTHOFLAVONE, Method: SUSPENSION/PLATE); “inactive; negative” (Test System: E. COLI, Strain/Indicator: WP2 UVRA, Metabolic Activation: HAMSTER, LIVER, S-9, AROCLOR 1254, Method: STANDARD PLATE). For the same molecule, the mutagenic call runs as follows: (Test System: E. COLI, Strain/Indicator: WP2 UVRA, Metabolic Activation: HAMSTER, LIVER, S-9, Method: STANDARD PLATE) “inactive; negative”; (Test System: E. COLI, Strain/Indicator: WP2 UVRA, Metabolic Activation: MOUSE, LIVER, S-9, AROCLOR 1254, Method: STANDARD PLATE) “inactive; negative”; (Test System: E. COLI, Strain/Indicator: WP2 UVRA, Metabolic Activation: MOUSE, LIVER, S-9, Method: STANDARD PLATE) “inactive; negative”; (Test System: E. COLI, Strain/Indicator: WP2 UVRA, Metabolic Activation: NONE, Method: STANDARD PLATE) “inactive; negative”; (Test System: E. COLI, Strain/Indicator: WP2 UVRA, Metabolic Activation: RAT, LIVER, S-9, AROCLOR 1254, Method: STANDARD PLATE) “inactive; negative”; (Test System: E. COLI, Strain/Indicator: WP2 UVRA, Metabolic Activation: RAT, LIVER, S-9, Method: STANDARD PLATE) “inactive; negative”.
Consider `C1=C/CCC2OC2CC/C=C/CC/1` (configuration not stated), for which the mutagenic call is, setting by setting: under setting [2], “inactive; negative”; under setting [3], “inactive; negative”; (Test System: AMES SALMONELLA TYPHIMURIUM, Strain/Indicator: TA1535, Metabolic Activation: NONE, Method: STANDARD PLATE) “inactive; negative”; under setting [4], “inactive; negative”.
Turning to `Cc1cccc(NC(=O)c2csc([N+](=O)[O-])c2)c1`, the mutagenic call by setting is: under setting [1], “active; positive”; under setting [2], “active; positive”.
